How the values were obtained:
[1] = test system: souris sevrée; experiment: Handling-induced convulsion score during alcohol withdrawal (Watson and Little 1995); assay type: in vivo; details: NMRI mice, 4 to 6 h after removal
Experimental: (§1) Des souris de souche NMRI (élevage Janvier), âgées de 5 à 6 semaines et de poids compris entre 25 et 30 g sont utilisées après 10 jours d'habituation aux conditions du laboratoire. Les conditions d'hébergement sont les suivantes : t° ambiante = 22 ± 2 °C; hygrométrie relative = 50 ± 20 %; cycle lumière/obscurité : 12 h/12 h (lumière de 7h00 à 19h00); nourriture A04 (SAFE, France) et boisson (eau du robinet) à volonté; dix animaux groupés par cage de polypropylène (435x435x194 mm).
(§2) Dans un premier temps, les animaux ont été familiarisés avec la nourriture liquide apportée sous un volume quotidien de 40 ml durant 7 à 10 jours. Celle-ci est constituée de lait chocolaté (Candia, France) auquel sont ajoutés 5 g/l d'un mélange de sels minéraux (ICN, France) et 3 g/l d'un mélange de vitamines (ICN, France).
(§3) Dans un deuxième temps, les animaux alcoolisés ont reçu la nourriture liquide contenant 3 % (p/v) d'éthanol (95°) durant 8 jours puis 4 % (p/v) d'éthanol (95°) durant 7 jours, tandis que les animaux témoins (non alcoolisés) ont eu accès à une nourriture avec l'équivalent calorique de dextrose (D-glucose, VWR, France).
(§4) Aucune nourriture solide, ni eau de boisson n'ont été proposées aux animaux durant cette période d'alcoolisation. Au terme des 15 jours d'alcoolisation (J15), le biberon avec l'alcool a été remplacé par un biberon de nourriture identique à celui des animaux témoins.
Cette mesure est effectuée selon le protocole décrit par Watson and Little (1995) J Pharmacol Exp Ther 272: 876-884. Brièvement, l'animal est soulevé par la queue et maintenu durant 30 secondes à 30 cm d'une lampe pourvue d'une ampoule de 60W puis subit une légère rotation (360°). Le comportement de chaque animal est évalué selon une échelle de cotation de 0 à 5, selon des critères figurant dans le Tableau 1 : Tableau 1 : Différents niveaux de cotation du comportement chez la souris selon Watson et Little (1995)
La mesure est réalisée avant l'expérience (conditions basales), 24 heures avant le retrait de l'éthanol puis le jour du retrait toutes les heures de 1 à 7 heures après le retrait du biberon de nourriture (7h00 - 8h00 le matin).
L'étifoxine (6.25 - 100 mg/kg) et le diazépam (1 et 4 mg/kg) sont administrés par voie intrapéritonéale (ip) 3h30 après le retrait du biberon. Une étude préliminaire a montré que les signes de sevrage étaient présents à ce temps (score ≥ 2). Les animaux contrôles reçoivent un volume équivalent de liquide véhicule.
Un score (de 0 à 5) est attribué pour chaque animal à chaque temps (de 1 à 7 h).
L'étifoxine (lots 219 et 350; Biocodex - France) est mis en suspension dans une solution saline (NaCl-0.9 %; p/v) de tween 80 à 1% (v/v) tandis que le diazépam (Valium®) est solubilisé dans une solution saline. Le volume d'administration par voie ip est de 0.1 ml/10 g. […]

[2] = test system: souris sevrée; experiment: Anxiety level during alcohol withdrawal: two-compartment (light/dark) box test (Crawley and Goodwin 1980, modified); assay type: in vivo; details: 8 h after ethanol removal, 5 min test, withdrawn NMRI mice
Experimental: as §1, §2, §3, §4
Le protocole décrit par Crawley and Goodwin (1980) Pharmacol Biochem Behav 1980; 13: 167-170 et légèrement modifié a été utilisé. Cette épreuve, reposant sur les tendances agoraphobiques et photophobiques des rongeurs, est classiquement utilisée pour mesurer leur niveau de peur ou d'anxiété.
Le dispositif est constitué d'une boîte en plexiglas à 2 compartiments (OSYS, Orga System; France) : l'un (18 x 27 x 30 cm) sombre et pourvu d'un couvercle, est éclairé à l'aide d'une lampe rouge (60W; 4 lux) tandis que le plus grand (27 x 27 x 30 cm), peint en blanc, est éclairé à l'aide d'une lampe de 60 W (400 lux). Une entrée (7.5 x 7.5 cm) située au centre de la cloison qui sépare les 2 compartiments, relie les 2 compartiments. Ceux-ci, équipés de cellules photoélectriques infra-rouges (4 dans le compartiment clair et 3 dans le compartiment sombre) reliées à un compteur digital, permettent la détection et la mesure des déplacements de l'animal. Celui-ci est déposé au centre du compartiment sombre face à l'ouverture. La latence d'entrée (en sec.) dans le compartiment clair, le nombre de déplacements dans le compartiment clair et le nombre de transition entre les 2 compartiments sombre et clair sont relevés au terme d'une épreuve de 5 min. La boîte est nettoyée avec de l'eau alcoolisée (10 %; v/v) pour éliminer toute trace odorante entre chaque passage. L'épreuve est réalisée 8 h après le retrait de la nourriture alcoolisée. Ce délai correspond au temps optimal pour la mesure du niveau d'anxiété chez l'animal soumis au sevrage alcoolique (Watson et Little (1994) Psychopharmacology (Berl) 114: 329-336).
L'étifoxine (6.25 - 50 mg/kg) ou le diazépam (1 mg/kg) est administré par voie ip 30 min avant l'épreuve. Les animaux contrôles reçoivent un volume équivalent de liquide véhicule.
L'étifoxine (lots 219 et 350; Biocodex - France) est mis en suspension dans une solution saline (NaCl-0.9 %; p/v) de tween 80 à 1% (v/v) tandis que le diazépam (Valium®) est solubilisé dans une solution saline. Le volume d'administration par voie ip est de 0.1 ml/10 g.
Les résultats sont exprimés par la valeur moyenne ± erreur standard à la moyenne (esm). Concernant la mesure de l'intensité des convulsions induites par la manipulation, l'analyse de variance (ANOVA) à 2 facteurs (temps x traitement) avec mesures répétées sur le facteur temps suivie de manière post-hoc par le test de Student Newman-Keuls, a été utilisée pour localiser les différences entre les groupes expérimentaux. […]

Compound | score de convulsions ([1]; mainly at 4 mg/kg ip 3h30 after ethanol removal) | latence d'entrée dans le compartiment clair ([2]; 1 mg/kg ip 30 min before test) | nombre de déplacements dans le compartiment clair ([2]; 1 mg/kg ip 30 min before test) | nombre de transitions entre les 2 compartiments ([2]; 1 mg/kg ip 30 min before test) | score de convulsions ([1]; 12.5 mg/kg ip 3h30 after ethanol removal, vs alcoholised controls, p<0.05) | score de convulsions ([1]; 25 mg/kg ip 3h30 after ethanol removal, vs alcoholised controls, p<0.05) | score de convulsions ([1]; 100 mg/kg ip 3h30 after ethanol removal, vs alcoholised controls, p<0.05) | latence d'entrée dans le compartiment clair ([2]; 50 mg/kg ip 30 min before test) | nombre de déplacements dans le compartiment clair ([2]; 50 mg/kg ip 30 min before test) | nombre de transitions entre les 2 compartiments ([2]; 50 mg/kg ip 30 min before test)
CN1C(=O)CN=C(c2ccccc2)c2cc(Cl)ccc21 [diazépam] | produit le même effet | atténue également de manière significative les effets du retrait de l'éthanol | atténue également de manière significative les effets du retrait de l'éthanol | atténue également de manière significative les effets du retrait de l'éthanol | – | – | – | – | – | –
CCNC1=Nc2ccc(Cl)cc2C(C)(c2ccccc2)O1 (stereo not shown) [étifoxine, chlorhydratede 6-chloro-2-éthylamino-4-méthyl-4-phényl-4H-[3,1]benzoxazine] | – | – | – | – | réduit significativement le score de convulsions | réduit significativement le score de convulsions | réduit significativement le score de convulsions | s'oppose aux effets du sevrage à l'éthanol sur ces 3 paramètres avec un effet statistiquement significatif | s'oppose aux effets du sevrage à l'éthanol sur ces 3 paramètres avec un effet statistiquement significatif | s'oppose aux effets du sevrage à l'éthanol sur ces 3 paramètres avec un effet statistiquement significatif
